Data published in the supplement of paper PMC8967900.

Experiments:
Test in all cases: selective drug sensitivity score (sDSS, relative to normal bone marrow) (sDSS (score)); higher = more potent and effective on the cell line relative to normal bone marrow cells
Details in all cases: 72 h
MHH-CALL-4 = test system: MHH-CALL-4
697 = test system: 697
DND-41 = test system: DND-41
COG-LL-317 = test system: COG-LL-317
CCRF-HSB2 = test system: CCRF-HSB2
ALL-SIL = test system: ALL-SIL
COG-LL-319h = test system: COG-LL-319h
JURKAT = test system: JURKAT
HPB-ALL = test system: HPB-ALL
COG-LL-402h = test system: COG-LL-402h
COG-LL-355h = test system: COG-LL-355h
MN-60 = test system: MN-60
SUP-B15 = test system: SUP-B15
KASUMI-2 = test system: KASUMI-2
MHH-CALL-3 = test system: MHH-CALL-3
MOLT-4 = test system: MOLT-4
380 = test system: 380
TANOUE = test system: TANOUE
NALM-16 = test system: NALM-16
KARPAS-45 = test system: KARPAS-45
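Further: ALL cell lines in 384-well plates, five doses spanning 10,000-fold, each plate scaled between vehicle and 100 µmol/L benzalkonium chloride controls, sDSS an adapted area-under-curve metric.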

| SMILES | selective drug sensitivity score (MHH-CALL-4) | selective drug sensitivity score 697 | selective drug sensitivity score (DND-41) | selective drug sensitivity score (COG-LL-317) | selective drug sensitivity score (CCRF-HSB2) | selective drug sensitivity score (ALL-SIL) | selective drug sensitivity score (COG-LL-319h) | selective drug sensitivity score (JURKAT) | selective drug sensitivity score (HPB-ALL) | selective drug sensitivity score (COG-LL-402h) | selective drug sensitivity score (COG-LL-355h) | selective drug sensitivity score (MN-60) | selective drug sensitivity score (SUP-B15) | selective drug sensitivity score (KASUMI-2) | selective drug sensitivity score (MHH-CALL-3) | selective drug sensitivity score (MOLT-4) | selective drug sensitivity score 380 | selective drug sensitivity score (TANOUE) | selective drug sensitivity score (NALM-16) | selective drug sensitivity score (KARPAS-45) |
| --- | --- | --- | --- | --- | --- | --- | --- | --- | --- | --- | --- | --- | --- | --- | --- | --- | --- | --- | --- | --- |
| Cn1cc(-c2[nH]c3cc(NC(=O)[C@H](N)C4CCCCC4)cc4c3c2C=NNC4=O)cn1 (top concentration 10000 nM) | 0.88 | 9.38 | 10.3 | 6.08 | 6.98 | 9.18 | 11.5 | 3.48 | 9.68 | 7.08 | 1.98 | -1.82 | 6.58 | -6.12 | 0.38 | 3.38 | 8.68 | -5.22 | 3.98 | 6.78 |
| CN[C@@H](C)C(=O)N[C@H](C(=O)N1CCC[C@H]1c1nc(C(=O)c2ccc(F)cc2)cs1)C1CCCCC1 [NVP-LCL161] (top concentration 25000 nM) | 1.58 | -4.92 | -2.72 | -2.02 | 1.88 | 0.08 | -2.32 | -3.82 | -2.62 | -5.42 | 12.2 | -5.72 | -3.82 | 2.88 | -3.22 | -4.32 | -5.02 | -5.82 | -5.82 | -1.82 |
| Cc1ncc(Cl)cc1NCc1ccc(C(=O)N[C@@H](CC2CCCC2)C(=O)NC2CC2)s1 (top concentration 5000 nM) | -0.94 | -0.94 | -0.94 | 18.9 | 0.66 | 4.16 | 14.3 | 0.76 | 1.36 | 13.1 | 2.26 | -0.94 | 3.46 | 4.56 | 8.26 | 3.26 | 9.86 | -0.94 | 1.06 | -0.94 |
| O=C1CCc2c(Oc3ccc4c(c3)[C@@H]3[C@H](O4)[C@H]3c3nc4cc(C(F)(F)F)ccc4[nH]3)ccnc2N1 [Lifirafenib (BGB-283)] (top concentration 10000 nM) | 7.58 | 6.68 | 1.18 | 2.28 | 8.88 | 30 | -0.52 | 5.28 | 0.98 | 2.38 | 4.78 | 1.48 | 17 | 1.98 | 0.68 | 1.38 | 0.98 | 0.48 | -0.02 | 2.88 |
| O=C(/C=C\n1cnc(-c2cc(C(F)(F)F)cc(C(F)(F)F)c2)n1)NNc1cnccn1 [Selinexor] (top concentration 10000 nM) | 5.18 | 12.4 | 14.6 | 17.4 | 14.8 | 9.88 | 9.68 | 12.8 | 3.78 | 11.7 | 11.9 | 3.58 | 16.3 | 16.7 | 24.5 | 13.2 | 18.1 | -7.02 | 0.48 | 10.9 |
| O=C(Nc1c[nH]nc1-c1nc2ccc(CN3CCOCC3)cc2[nH]1)NC1CC1 [AT9283] (top concentration 1000 nM) | 4.92 | 12.1 | -0.68 | 14.2 | 11.4 | 15.6 | 11.3 | -1.38 | -1.48 | 7.72 | 6.22 | 1.02 | 12.6 | 6.22 | 10.4 | 3.72 | 11.3 | -4.38 | -0.68 | 9.22 |
| Cc1nc(Nc2n[nH]c3c2CN(C(=O)N[C@H](CN(C)C)c2ccccc2)C3(C)C)c2sccc2n1 (top concentration 10000 nM) | 0.88 | 16.4 | 0.98 | 18.6 | 11.1 | -5.82 | 4.28 | 0.68 | -1.72 | 6.18 | 3.98 | 5.08 | 12.8 | 3.28 | 0.18 | -1.22 | 22.2 | -11.1 | 2.58 | 9.48 |
| C[C@H](Nc1ncnc2nc[nH]c12)c1cc2cccc(Cl)c2c(=O)n1-c1ccccc1 [Duvelisib] (top concentration 500 nM) | -0.34 | 2.16 | -0.14 | 1.96 | -0.44 | -0.94 | 3.56 | -0.94 | -0.94 | 4.96 | 4.96 | -0.94 | 0.06 | 9.86 | -0.14 | -0.94 | 1.46 | -0.94 | -0.94 | -0.44 |
| CNC(=O)c1cccc(-c2ccc3c(N4CCOC[C@@H]4C)nc(N4CCOC[C@@H]4C)nc3n2)c1 [Vistusertib] (top concentration 10000 nM) | 5.82 | 15.1 | 9.02 | 2.12 | 5.42 | 8.52 | 10.6 | 2.22 | 1.12 | 9.12 | 6.12 | 2.72 | 10.7 | 15 | 2.12 | 3.12 | 17.1 | -2.78 | 2.22 | 5.02 |
